# Test results from patent US11078196B2, “Heteroaryl amides as inhibitors of protein aggregation” (UCB Biopharma SRL, priority 2014, dated 2021).
# Read-outs that look alike come from different tables or passages of the source.
# Experiments:
# Plasma stability = assay type: in vitro ADME
# Stability in SGF = assay type: in vitro ADME
# [1] = In vivo pharmacokinetics and brain distribution, single i.v. or p.o. dose; set-up: species or system male C57BL/6 mice; settings: mice; for clearance / bioavailability: male, C57BL/6, mouse, plasma; for clearance: read-out: PK Clearance; for bioavailability: po, read-out: Oral Bioavailablility
# Protocol: The pharmacokinetics and brain distribution of the compounds described herein was determined in male C57BL/6 mice following single intravenous or oral dose administration. A group of 54 male mice were divided into two groups of 27 mice. […] Blood samples were collected pre-dose and at 0.08, 0.25, 0.5, 1, 2, 4, 8, and 24 h post-dose (i.v.), and pre-dose, and at 0.25, 0.5, 1, 2, 4, 6, 8 and 24 h post-dose (p.o.). Blood was collected from sets of three mice at each time point in labeled microcentrifuge tubes containing K2EDTA as anticoagulant. Plasma samples were separated by centrifugation of whole blood and stored below −70° C. until bioanalysis. After collecting blood samples, mice were humanely euthanized by CO2 asphyxiation and brain was collected at the same time points. Following collection, the brain samples were washed in ice-cold phosphate buffer saline (pH 7.4), gently dried on filter paper, weighed and placed in polypropylene tubes. Further brain samples were homogenized using phosphate buffer saline pH 7.4 and the total homogenate volume was thrice the brain weight. The samples were then stored below −70° C. until bioanalysis. All samples were processed for analysis by protein precipitation using acetonitrile and analyzed with fit-for-purpose LC/MS/MS method (LLOQ: 1.01 ng/mL for plasma and brain). Pharmacokinetic parameters were calculated using the non-compartmental analysis tool of Phoenix WinNonlin (Version 6.3).
# PDNG78 transgenic mice = experiment: Longitudinal retinal imaging of ASYN-GFP; assay type: in vivo, mouse; settings: 5 mg/kg i.p., after approximately 60 days through 90 days
# Protocol: A total of four imaging sessions were conducted, including a baseline prior to starting treatments and three subsequent imaging sessions at approximately one-month intervals.
# [2] = system: Line 61 ASYN transgenic mice; experiment: Fecal boli counts in a novel environment; assay type: in vivo, mouse
# Protocol: An earlier published study included a report that Line 61 ASYN transgenic mice have decreased colonic motility, fecal output, and weight (Wang, L. et al. Neurogastroenterol. Motil. 2012, 24(9), e425-436). For the present study, an assessment of fecal boli counts was conducted in conjunction with a spontaneous locomotor activity test session. At the conclusion of a five-minute test session, the experimenter counted the number of fecal boli present in the test chamber, and the results are presented in FIG. 9.
# [3] = system: transgenic ASYN protein in Line 61 ASYN transgenic mouse; experiment: Western Blot analysis of cerebral cortical and hippocampal brain homogenates; assay type: in vivo
# Protocol: (§1) Example 1 was evaluated in a transgenic mouse model of PD overexpressing human wild-type ASYN under the Thy-1 promoter (also referred to as the Line 61 ASYN transgenic mouse), by administering Example […] 0, 1, or 5 mg/kg (i.p.) once daily (five days per week) for three months and then assessing PD-relevant sensorimotor performance, biochemical alterations, and neuropathological changes in ASYN and related proteins.
# (§2) Biochemical evaluations of oligomeric proteins using A11 antibody dot blot methods (including ASYN) in cortical homogenates were performed.
# [4] = system: cardiac ASYN in Line 61 ASYN transgenic mice; experiment: Post-mortem Western blot of cardiac ASYN; assay type: in vivo, mouse; settings: p<0.0001 vs. vehicle-treated ASYN transgenic mice
# Excerpt: Like bowel dysfunction, alterations in cardiac biochemistry and function may precede Parkinson's disease diagnosis by 20 years or more. Well-characterized functional alterations in PD patients include altered heart rate variability and orthostatic hypotension (Kaufmann, H. et al., Handbook Clin. Neurol. 2013, 117, 259-278; Jain, S. et al., Neurobiol. Dis. 2012, 46(3), 572-580; Senard, J. M. et al., Rev. Neurol. (Paris) 2010, 166(10), 779-784; Post, K. K. et al., Parkinsonism Relat. Disord. 2008, 14(7), 524-531). These functional changes are accompanied by pathological findings of loss of myocardial noradrenergic innervation and the presence of ASYN aggregates in cardiac autonomic nerves (Jellinger, K. A., J. Neurol. Sci. 2011, 310 (1-2), 107-111). […] For the present study, post-mortem Western blot evaluations of cardiac ASYN by Western blot analysis were performed to confirm the presence in ASYN transgenic cardiac tissue and to evaluate the effects of Example 1 on transgenic cardiac levels of ASYN (FIG. 10). There was a statistically significant increase in detected cardiac levels of ASYN in vehicle-treated ASYN transgenic mice relative to vehicle-treated non-transgenic control mice (***p<0.001).
# [5] = system: Line 61 ASYN transgenic mouse; experiment: Round Beam Task, sensorimotor impairment; assay type: in vivo; settings: for number of slips, Round Beam Task: Example 6A, three months, vs. vehicle-treated transgenic mice; for number of slips, Round Beam Motor Performance assay: Example 6B
# Excerpt: The Round Beam Task was used to assess sensorimotor impairments, using number of slips as the primary outcome measure (FIG. 4).
# [6] = system: ASYN in Line 61 ASYN transgenic mouse; experiment: ASYN immunolabeling in cortical neuropil and neuronal cell bodies; assay type: in vivo; settings: for alpha-synuclein immunolabeling in cortical neuropil: p<0.0001 vs. vehicle-treated ASYN transgenic mice
# Protocol: These neuropathological findings were reconfirmed in the current study using the methods described by Masliah and colleagues. Example 1 administration (1 and 5 mg/kg dosing) produced statistically significant decreases in ASYN levels as determined by effects on ASYN immunolabeling (FIGS. 6 and 7). There was a statistically significant increase in ASYN immunolabeling with the Millipore anti-alpha-synuclein antibody in the cortical neuropil (****p<0.0001) (FIG. 6A) and in neuronal cell bodies of ASYN transgenic mice (**p<0.01) (FIG. 6B) relative to non-transgenic/vehicle controls.
# [7] = system: oligomers in Line 61 ASYN transgenic mouse; experiment: A11 antibody dot blot of oligomeric proteins in cortical homogenates; assay type: in vivo; settings: 5 mg/kg; p<0.001 vs. vehicle-treated ASYN transgenic mice
# Protocol: as §1, §2
SMILES,Stability in SGF (Stability in SGF),B:P ratio (PO) ([1]; at 10 mg/kg),bioavailability ([1]; at 10 mg/kg),B:P ratio (IV) ([1]; at 10 mg/kg),Plasma Stability (Plasma stability; @ 120 min),"clearance ([1]; iv, at 10 mg/kg)",also measured
"CCCCNC(=O)C(Cc1c[nH]c2ccccc12)NC(=O)c1cnc(N2CCNCC2)s1 (centres unmarked) [Comp. A, reference compound]",stable,0.05,,,,,"Plasma Stability (Plasma stability; @ 60 min): 35% @; clearance ([1]; intravenous, at 10 mg/kg): 4.26 L/h/kg"
"CCCNC(=O)NC(Cc1c[nH]c2ccccc12)NC(=O)c1cnc(N2CCN(C)CC2)s1 (centres unmarked) [Comp. B, reference compound]",unstable,0.08,14%,0.1,,,"Plasma Stability (Plasma stability; @ 60 min): 89% @; clearance ([1]; intravenous, at 10 mg/kg): 15.5 L/h/kg"
"CCCCC(Cc1c[nH]c2ccccc12)NC(=O)c1cnc(N2CCN(C)CC2)s1 (centres unmarked) [Example 1, N-(1-(1H-Indol-3-yl)hexan-2-yl)-2-(4-methylpiperazin-1-yl)thiazole-5-carboxamide]",stable,0.4,53%,2.0,100% @,4.86 L/h/kg,"percentage of ASYN-GFP positive area in retinal images (PDNG78 transgenic mice; p<0.001 vs. vehicle): decreased; number of ASYN-GFP positive particles in retinae (PDNG78 transgenic mice; p<0.01 vs. vehicle): decreased; number of fecal boli produced ([2]; ASYN transgenic mice, 0.5 mg/kg, p<0.05 vs. vehicle): restored function; number of fecal boli produced ([2]; ASYN transgenic mice, 1 mg/kg, p<0.001 vs. vehicle): restored function; number of fecal boli produced ([2]; non-transgenic mice): no effect; transgenic ASYN protein levels [3]: statistically significant reductions; cardiac levels of ASYN ([4]; 0.5 mg/kg): statistically significant normalizations of ASYN levels; cardiac levels of ASYN ([4]; 1 mg/kg): statistically significant normalizations of ASYN levels; number of slips, Round Beam Task ([5]; 1 mg/kg i.p. once daily): statistically significantly reductions in slips; number of slips, Round Beam Task ([5]; 5 mg/kg i.p. once daily): statistically significantly reductions in slips; number of slips, Round Beam Motor Performance assay ([5]; 0.5 mg/kg): non-statistically significant decrease in slips; number of slips, Round Beam Motor Performance assay ([5]; 1 mg/kg, p<0.01 vs. vehicle-treated ASYN transgenic mice): statistically significant improvement (decreased slips); alpha-synuclein immunolabeling in cortical neuropil ([6]; 1 mg/kg): statistically significant decreases in alpha-synuclein immunolabeling; number of ASYN immunolabeled neuron cell bodies ([6]; 5 mg/kg): non-statistically significant decrease; alpha-synuclein immunolabeling in cortical neuropil ([6]; 5 mg/kg): statistically significant decreases in alpha-synuclein immunolabeling; oligomers (A11 immunostaining) in cytosolic fraction of frontal cortex [7]: statistically significant decrease in oligomers"
"CN1CCN(CCc2ncc(C(=O)NCCc3c[nH]c4ccccc34)s2)CC1 [Example 4, N-(2-(1H-Indol-3-yl)ethyl)-2-(2-(4-methylpiperazin-1-yl)ethyl)thiazole-5-carboxamide]",stable,0.1,100%,0.4,25% @,5.7 L/h/kg,
"CCCCC(Cc1c[nH]c2ccc(F)cc12)NC(=O)c1cnc(CCN2CCOCC2)s1 (centres unmarked) [Example 10, N-(1-(5-Fluoro-1H-indol-3-yl)hexan-2-yl)-2-(2-morpholinoethyl)thiazole-5-carboxamide]",,0.15,13%,,,,"clearance ([1]; intravenous, at 2 mg/kg): 4.5 L/h/kg; B:P ratio (IV) ([1]; at 2 mg/kg): 0.8"

# Now from value to compound, other results behind:
Stability in SGF (Stability in SGF),B:P ratio (PO) ([1]; at 10 mg/kg),bioavailability ([1]; at 10 mg/kg),B:P ratio (IV) ([1]; at 10 mg/kg),Plasma Stability (Plasma stability; @ 120 min),"clearance ([1]; iv, at 10 mg/kg)",SMILES,also measured
stable,0.05,79%,0.18,100% @,1.44 L/h/kg,"CCCCC(Cc1c[nH]c2ccccc12)NC(=O)c1cnc(CCN2CCN(C)CC2)s1 (centres unmarked) [Example 5, N-(1-(1H-Indol-3-yl)hexan-2-yl)-2-(2-(4-methylpiperazin-1-yl)ethyl)thiazole-5-carboxamide]",
,0.3,57%,1.4,,2.22 L/h/kg,"CCCC[C@@H](Cc1c[nH]c2ccccc12)NC(=O)c1cnc(N2CCN(C)CC2)s1 [Example 27, (S)-N-(1-(1H-Indol-3-yl)hexan-2-yl)-2-(4-methylpiperazin-1-yl)thiazole-5-carboxamide]",
,0.4,14%,2.1,,4.14 L/h/kg,"CCCC[C@H](Cc1c[nH]c2ccccc12)NC(=O)c1cnc(N2CCN(C)CC2)s1 [Example 28, (R)-N-(1-(1H-Indol-3-yl)hexan-2-yl)-2-(4-methylpiperazin-1-yl)thiazole-5-carboxamide]",
